From US20090061024A1, “COMPOSITIONS AND METHODS EMPLOYING NMDA ANTAGONISTS FOR ACHIEVING AN ANESTHETIC-SPARING EFFECT” (Wyeth, priority 2007, published 2009)
Like-named read-outs stand apart in the source and are kept apart here.

Experiments:
[1] = test system: rats trained to distinguish between PCP and saline; details: cited from earlier work
[2] = Anesthetic-sparing effect of perzinfotel with isoflurane (summary statements); type: in vivo, dogs; details: in combination with anesthetic (isoflurane); doses without reduced cardiopulmonary function
[3] = doses needed to relieve hyperalgesia in preclinical pain models; cited from earlier work
[4] = test system: cingulate and retrosplenial cortices; details: mice and rats, cited from earlier work
[5] = doses typically used clinically; cited from earlier work

C[C@]12N[C@H](Cc3ccccc31)c1ccccc12 [dizocilpine]
substitution for PCP (discriminative stimulus effects) [1]: substitute

CC12CC3CC(C)(C1)CC(N)(C3)C2 [memantine]
substitution for PCP (discriminative stimulus effects) [1]: substitute

O=c1c2c(c1=O)N(CCP(=O)(O)O)CCCN2 [Perzinfotel, [2-(8,9-dioxo-2,6-diazabicyclo[5.2.0]non-1-(7)-en-2-yl)ethyl]phosphonic acid]
anesthetic-sparing effects [2]: up to 60%
substitution for PCP (discriminative stimulus effects) [1]: did not substitute
ataxia or sedation [3]: did not produce ataxia or sedation

O=C(O)[C@H]1C[C@@H](CP(=O)(O)O)CCN1 (relative stereo) [CGS-19755, cis-4-phosphonomethyl-2-piperidine carboxylic acid]
vacuoles in some layers of the cingulate and retrosplenial cortices ([4]; behaviorally effective doses): transient, reversible induction of vacuoles
effectiveness:vacuolization ratio [4]: 1

CNC1(c2ccccc2Cl)CCCCC1=O (centres unmarked) [ketamine]
anesthetic-sparing effects [5]: 10-20%
